Measured values: US4599352A, “Antineoplastic platinum (IV) complexes and compositions” (priority 1984, dated 1986)

Key:
IP L1210 = assay: Activity against IP-implanted L1210 leukemia sensitive to cisplatin, 30 day test (Table 3); type: in vivo, Female CD2Fl mice
Experimental: (§1) Biological properties of the compounds of the present invention were determined following the protocol described in Cancer Chemotherapy Reports, Vol. 3, No. 3, 1972 which report is incorporated herein by reference.
(§2) Other known mechanisms of resistance for other classes of agents, such as gene amplification or target enzyme change or amplication, also need to be explored. The experiments summarized in Table 3 were conducted at the same time against both sublines using the same drug preparations. […] These experiments were repeated in a second laboratory as documented in Table 4. However, in these experiments the animals were held for 60 rather than 30 days to evaluate whether or not long-term survivors are produced after drug treatment in a more challenging setting.
(§3) This experiment (A8-00005 3LE31) was conducted at the Southern Research Institute, Birmingham, Ala. under the supervision of Dr. Daniel Griswold. The protocols were the same as those published previously (Geran et al., Cancer Chemotherapy Reports 3: No. 2, 1972 [Attachment 11]). 10^5 cells were implanted intraperitoneally in CD2Fl male mice on Day 0. Drug treatments were given intraperitoneally as single injections at the doses indicated on Days 1, 5 and 9 after tumor implantation. The diluent was saline except for NSC-271674 where 5% sodium bicarbonate was used. All drugs were prepared fresh on the day of injection, and all were administered in solution. Median survival times for both control and drug-treated mice were determined and expressed as a percentage (% T/C). Body weights were determined on Day 5 and expressed as a weight difference (body weight of the drug-treated animals minus that of the control animals in grams) (T-C). The diluent control animals lived a median of 8.4 days and gained 1.9 grams by Day 5 in this experiment. All animals, including Day 30 survivors, were used in the calculation of median survival times. The log10 change in tumor burden refers to the net log change in viable tumor cell population at the end of therapy (Rx) as compared to the start of therapy; e.g., a […] means that there was a […] and a 3 log change means there was a 1000-fold increase in tumor burden at the end of therapy. The tumor burden at the start of therapy was about 6.1×10^5 cells in this experiment.
These experiments (A8-00008 3LE31 and A8-00001 3DP31) were conducted concurrently at the Southern Research Institute, Birmingham, Ala. under the supervision of Dr. Daniel Griswold. See Table 4 for experimental details. The diluent control animals bearing L1210 leukemia lived a median of 8.6 days and gained 1.3 grams by Day 5. […] Female CD2Fl mice were used for these experiments.

IP L1210/Cisplatin = assay: Activity against IP-implanted L1210/Cisplatin leukemia resistant to cisplatin, 30 day test (Table 3); type: in vivo, Female CD2Fl mice
Experimental: as §1, §2
This experiment (A8-00005 3LE31) was conducted at the Southern Research Institute, Birmingham, Ala. under the supervision of Dr. Daniel Griswold. The protocols were the same as those published previously (Geran et al., Cancer Chemotherapy Reports 3: No. 2, 1972 [Attachment 11]). 10^5 cells were implanted intraperitoneally in CD2Fl male mice on Day 0. Drug treatments were given intraperitoneally as single injections at the doses indicated on Days 1, 5 and 9 after tumor implantation. The diluent was saline except for NSC-271674 where 5% sodium bicarbonate was used. All drugs were prepared fresh on the day of injection, and all were administered in solution. Median survival times for both control and drug-treated mice were determined and expressed as a percentage (% T/C). Body weights were determined on Day 5 and expressed as a weight difference (body weight of the drug-treated animals minus that of the control animals in grams) (T-C). The diluent control animals lived a median of 8.4 days and gained 1.9 grams by Day 5 in this experiment. All animals, including Day 30 survivors, were used in the calculation of median survival times. The log10 change in tumor burden refers to the net log change in viable tumor cell population at the end of therapy (Rx) as compared to the start of therapy; e.g., a […] means that there was a […] and a 3 log change means there was a 1000-fold increase in tumor burden at the end of therapy. The tumor burden at the start of therapy was about 6.1×10^5 cells in this experiment. […]

[1] = system: IP-Implanted L1210 Leukemia; assay: Dose-response against IP-implanted L1210 leukemia, IP treatment Days 1, 5 and 9, 30-day test (Table 2); type: in vivo, CD2Fl male mice
Experimental: as §1, §3

Substance: Tetrachloro-cis-1,2-cyclohexanediamine platinum (IV)
- 30 Day Survivors/Total (IP L1210; 1 mg/kg/dose): 0/6
- Approx. Log10 Change in Tumor Burden at End of RX (IP L1210; 1 mg/kg/dose): ~2.8 log10
- Median % T/C (IP L1210; 1 mg/kg/dose): 125%
- 30 Day Survivors/Total (IP L1210; 2 mg/kg/dose): 0/6
- Approx. Log10 Change in Tumor Burden at End of RX (IP L1210; 2 mg/kg/dose): ~2.6 log10
- Median % T/C (IP L1210; 2 mg/kg/dose): 139%
- 30 Day Survivors/Total (IP L1210; 4 mg/kg/dose): 0/6
- Approx. Log10 Change in Tumor Burden at End of RX (IP L1210; 4 mg/kg/dose): ~2.4 log10
- Median % T/C (IP L1210; 4 mg/kg/dose): 148%
- 30 Day Survivors/Total (IP L1210; 8 mg/kg/dose): 2/6
- Approx. Log10 Change in Tumor Burden at End of RX (IP L1210; 8 mg/kg/dose): ~-5.9 log10
- Median % T/C (IP L1210; 8 mg/kg/dose): 325%
- 30 Day Survivors/Total (IP L1210; 16 mg/kg/dose): 1/6
- Approx. Log10 Change in Tumor Burden at End of RX (IP L1210; 16 mg/kg/dose): ~-5.7 log10
- Median % T/C (IP L1210; 16 mg/kg/dose): 267%
- 30 Day Survivors/Total (IP L1210/Cisplatin; 1 mg/kg/dose): 0/6
- Approx. Log10 Change in Tumor Burden at End of RX (IP L1210/Cisplatin; 1 mg/kg/dose): ~3.0 log10
- Median % T/C (IP L1210/Cisplatin; 1 mg/kg/dose): 105%
- 30 Day Survivors/Total (IP L1210/Cisplatin; 2 mg/kg/dose): 0/6
- Approx. Log10 Change in Tumor Burden at End of RX (IP L1210/Cisplatin; 2 mg/kg/dose): ~2.9 log10
- Median % T/C (IP L1210/Cisplatin; 2 mg/kg/dose): 110%
- 30 Day Survivors/Total (IP L1210/Cisplatin; 4 mg/kg/dose): 0/6
- Approx. Log10 Change in Tumor Burden at End of RX (IP L1210/Cisplatin; 4 mg/kg/dose): ~2.9 log10
- Median % T/C (IP L1210/Cisplatin; 4 mg/kg/dose): 111%
- 30 Day Survivors/Total (IP L1210/Cisplatin; 8 mg/kg/dose): 0/6
- Approx. Log10 Change in Tumor Burden at End of RX (IP L1210/Cisplatin; 8 mg/kg/dose): ~2.4 log10
- Median % T/C (IP L1210/Cisplatin; 8 mg/kg/dose): 138%
- 30 Day Survivors/Total (IP L1210/Cisplatin; 16 mg/kg/dose): 3/6
- Approx. Log10 Change in Tumor Burden at End of RX (IP L1210/Cisplatin; 16 mg/kg/dose): ~-5.9 log10
- Median % T/C (IP L1210/Cisplatin; 16 mg/kg/dose): 322%
- 30-Day Survivors/Total ([1]; 1 mg/kg/dose IP): 0/6
- Approx. Log10 Change in Tumor Burden at End of Rx ([1]; 1 mg/kg/dose IP): ~2.8 log10
- Body Weight Difference ([1]; 1 mg/kg/dose IP): -0.8 Grams
- Median % T/C ([1]; 1 mg/kg/dose IP): 128%
- 30-Day Survivors/Total ([1]; 2 mg/kg/dose IP): 0/6
- Approx. Log10 Change in Tumor Burden at End of Rx ([1]; 2 mg/kg/dose IP): ~2.6 log10
- Body Weight Difference ([1]; 2 mg/kg/dose IP): -1.3 Grams
- Median % T/C ([1]; 2 mg/kg/dose IP): 140%
- 30-Day Survivors/Total ([1]; 4 mg/kg/dose IP): 0/6
- Approx. Log10 Change in Tumor Burden at End of Rx ([1]; 4 mg/kg/dose IP): ~2.4 log10
- Body Weight Difference ([1]; 4 mg/kg/dose IP): -1.1 Grams
- Median % T/C ([1]; 4 mg/kg/dose IP): 152%
- 30-Day Survivors/Total ([1]; 8 mg/kg/dose IP): 0/6
- Approx. Log10 Change in Tumor Burden at End of Rx ([1]; 8 mg/kg/dose IP): ~-0.7 log10
- Body Weight Difference ([1]; 8 mg/kg/dose IP): -1.8 Grams
- Median % T/C ([1]; 8 mg/kg/dose IP): 205%
- 30-Day Survivors/Total ([1]; 16 mg/kg/dose IP): 2/6
- Approx. Log10 Change in Tumor Burden at End of Rx ([1]; 16 mg/kg/dose IP): ~-5.7 log10
- Body Weight Difference ([1]; 16 mg/kg/dose IP): -3.6 Grams
- Median % T/C ([1]; 16 mg/kg/dose IP): 333%
- Body Weight Difference ([1]; 16 mg/kg/dose IP, listed as cis): less than -4 Grams
- Optimal dose (dose producing best therapeutic response) ([1]; day 1, 5 and 9 schedule): 16 mg/kg/injection
